Measured values published in patent publication US20110190267A1, “PRODRUGS OF OPIOIDS AND USES THEREOF” (priority 2010, published 2011).
Several values for one entry are separate records, joined by “and”; a condition that tells them apart may be missing. Equal entries are not always repeated. Marks after values point to notes of the source that are not given here.

Columns and labels:
[1] = Pharmacokinetics of nalbuphine or nalbuphine PABA carbamate, rats (Example 42); assay type: in vivo, Wistar rats; details: for half-life: read-out: t½ (converted)
Protocol: Test substances (nalbuphine at 3 mg nalbuphine free base equivalents/kg or nalbuphine para amino benzoic acid carbamate at 3 mg nalbuphine free base equivalents/kg) were administered by oral gavage to groups of male Wistar rats in a parallel group study design.
Blood samples were taken at various times after administration and submitted to analysis for the parent drug and pro-drug using a validated LC-MS-MS assay. Pharmacokinetic parameters derived from the plasma analytical data were determined using Win Nonlin.

[2] = Pharmacokinetics of dextrorphan or dextrorphan PABA carbamate, monkeys (Example 47); assay type: in vivo, cynomolgus monkeys; details: for half-life: read-out: t½ (converted)
Protocol: (§1) Blood samples were taken at various times after administration, and submitted to analysis for the parent drug and prodrug using a validated LC-MS-MS assay. Pharmacokinetic parameters derived from the plasma analytical data were determined using Win Nonlin.

[3] = Pharmacokinetics of dextrorphan or dextrorphan PABA carbamate, dogs (Example 48); assay type: in vivo, beagle dogs
Protocol: Data were normalized to 1 mg/kg

[4] = Pharmacokinetics of levorphanol or levorphanol PABA carbamate, monkeys (Example 45); assay type: in vivo; details: levorphanol in plasma after oral levorphanol, 5 mg free base equivalent/kg; for half-life: read-out: t½ (converted)
Protocol: as §1

[5] = Pharmacokinetics of levorphanol or levorphanol PABA carbamate, dogs (Example 46); assay type: in vivo, Beagle dogs; details: for AUC / Cmax / Tmax / half-life / T>50%Cmax: levorphanol in plasma after oral levorphanol, 5 mg free base equivalents/kg, female beagle dog; for AUC: AUClast; for half-life / T>50%Cmax: maximum of 30% extrapolation allowed; for half-life: read-out: t½ (converted)
Protocol: as §1

[6] = nalbuphine in plasma after oral nalbuphine, 3 mg free base equivalents/kg, male rats, single animal
[7] = dextrorphan in plasma after oral dextrorphan, 5 mg free base equivalents/kg, male cynomolgus monkeys, single animal
[8] = dextrorphan in plasma after oral dextrorphan, 5 mg free base equivalents/kg, female dogs, single animal
[9] = nalbuphine PABA carbamate in plasma after oral p-aminobenzoic acid carbamate prodrug, 3 mg nalbuphine equivs/kg, male rats, single animal
[10] = male cynomolgus monkeys, single animal
[11] = male, cynomolgus monkey, plasma, po, 5 mg levorphanol free base equivalents/kg, Mean
[12] = male, cynomolgus monkey, plasma, po, 5 mg levorphanol free base equivalents/kg, single animal

Oc1ccc2c3c1O[C@H]1[C@@H](O)CC[C@@]4(O)[C@@H](C2)N(CC2CCC2)CC[C@]314 [nalbuphine]
AUC ([1]; male, Wistar, rat, plasma, po, 3 mg nalbuphine free base equivalents/kg, nalbuphine in plasma after oral nalbuphine, 3 mg free base equivalents/kg, Mean, read-out: AUC): 1.2 ng·h/mL | Cmax ([1]; male, Wistar, rat, plasma, po, 3 mg nalbuphine free base equivalents/kg, nalbuphine in plasma after oral nalbuphine, 3 mg free base equivalents/kg, Mean, read-out: Cmax): 1 ng/mL | Tmax ([1]; male, Wistar, rat, plasma, po, 3 mg nalbuphine free base equivalents/kg, nalbuphine in plasma after oral nalbuphine, 3 mg free base equivalents/kg, Mean, read-out: Tmax): 0.8 h | half-life ([1]; male, Wistar, rat, plasma, po, 3 mg nalbuphine free base equivalents/kg, nalbuphine in plasma after oral nalbuphine, 3 mg free base equivalents/kg, Mean): 1.4 h | Cmax ([1]; male, Wistar, rat, plasma, po, 3 mg nalbuphine free base equivalents/kg, nalbuphine in plasma after oral nalbuphine, 3 mg free base equivalents/kg, single animal, read-out: Cmax): 1.4 ng/mL | Tmax ([1]; male, Wistar, rat, plasma, po, 3 mg nalbuphine free base equivalents/kg, nalbuphine in plasma after oral nalbuphine, 3 mg free base equivalents/kg, single animal, read-out: Tmax): 0.5 h | half-life ([1]; male, Wistar, rat, plasma, po, 3 mg nalbuphine free base equivalents/kg, nalbuphine in plasma after oral nalbuphine, 3 mg free base equivalents/kg, single animal): 1.2 h | T>50%Cmax ([1]; nalbuphine in plasma after oral nalbuphine, 3 mg free base equivalents/kg, male rats, Mean): 1.3 h | AUC [1, 6]: 1.8 ng·h/mL and 0.4 ng·h/mL and 1.3 ng·h/mL | Cmax [1, 6]: 0.7 ng/mL and 0.8 ng/mL | T>50%Cmax [1, 6]: 1.5 h and 0.7 h and 1.8 h | Tmax [1, 6]: 1.0 h | t½ [1, 6]: 1.6 h

CN1CC[C@@]23CCCC[C@@H]2[C@@H]1Cc1ccc(O)cc13 [dextrorphan]
T>50%Cmax ([2]; dextrorphan in plasma after oral dextrorphan, 5 mg free base equivalents/kg, male cynomolgus monkeys, Mean): 3.5 h | Cmax [2, 7]: 3.0 ng/mL and 3.5 ng/mL and 5.5 ng/mL | T>50%Cmax [2, 7]: 3.7 h and 3.5 h and 4.5 h and 2.5 h and 3.3 h | Tmax [2, 7]: 1.0 h | AUC ([2]; dextrorphan in plasma after oral dextrorphan, 5 mg free base equivalents/kg, male cynomolgus monkeys, single animal (animal 12: extrapolation of AUC data 39%)): 14* ng · h/mL and 19 ng · h/mL (2×) and 13 ng · h/mL | AUC ([2]; male, cynomolgus monkey, plasma, po, 5 mg dextrorphan free base equivalents/kg, dextrorphan in plasma after oral dextrorphan, 5 mg free base equivalents/kg, male cynomolgus monkeys, Mean, read-out: AUC): 17 ng·h/mL | Cmax ([2]; male, cynomolgus monkey, plasma, po, 5 mg dextrorphan free base equivalents/kg, dextrorphan in plasma after oral dextrorphan, 5 mg free base equivalents/kg, male cynomolgus monkeys, Mean, read-out: Cmax): 3.9 ng/mL | Tmax ([2]; male, cynomolgus monkey, plasma, po, 5 mg dextrorphan free base equivalents/kg, dextrorphan in plasma after oral dextrorphan, 5 mg free base equivalents/kg, male cynomolgus monkeys, Mean, read-out: Tmax): 1.6 h | half-life ([2]; male, cynomolgus monkey, plasma, po, 5 mg dextrorphan free base equivalents/kg, dextrorphan in plasma after oral dextrorphan, 5 mg free base equivalents/kg, male cynomolgus monkeys, Mean): 2.1 h | Cmax ([2]; male, cynomolgus monkey, plasma, po, 5 mg dextrorphan free base equivalents/kg, dextrorphan in plasma after oral dextrorphan, 5 mg free base equivalents/kg, male cynomolgus monkeys, single animal, read-out: Cmax): 4.3 ng/mL | Tmax ([2]; male, cynomolgus monkey, plasma, po, 5 mg dextrorphan free base equivalents/kg, dextrorphan in plasma after oral dextrorphan, 5 mg free base equivalents/kg, male cynomolgus monkeys, single animal, read-out: Tmax): 2 h | half-life ([2]; male, cynomolgus monkey, plasma, po, 5 mg dextrorphan free base equivalents/kg, dextrorphan in plasma after oral dextrorphan, 5 mg free base equivalents/kg, male cynomolgus monkeys, single animal): 2.3 h | AUC ([2]; male, cynomolgus monkey, plasma, po, 5 mg dextrorphan free base equivalents/kg, read-out: AUC): 20 ng·h/mL | T>50%Cmax ([3]; dextrorphan in plasma after oral dextrorphan, 5 mg free base equivalents/kg, female dogs, Mean): 2.4 h | AUC [3, 8]: 18.9 ng·h/mL and 13.4 ng·h/mL and 8.3 ng·h/mL and 10.7 ng·h/mL and 12.4 ng·h/mL | Cmax [3, 8]: 4.2 ng/mL and 2.1 ng/mL and 3.8 ng/mL and 2.7 ng/mL | T>50%Cmax [3, 8]: 2.9 h (2×) and 2.4 h and 2.2 h and 1.6 h | Tmax [3, 8]: 1.0 h | T>50% Cmax of dextrorphan ([3]; dogs, oral): 2.4 h | AUC ([3]; female, beagle, dog, plasma, po, 5 mg dextrorphan free base equivalents/kg, dextrorphan in plasma after oral dextrorphan, 5 mg free base equivalents/kg, female dogs, Mean, read-out: AUC): 12.7 ng·h/mL | Cmax ([3]; female, beagle, dog, plasma, po, 5 mg dextrorphan free base equivalents/kg, dextrorphan in plasma after oral dextrorphan, 5 mg free base equivalents/kg, female dogs, Mean, read-out: Cmax): 3.3 ng/mL | Tmax ([3]; female, beagle, dog, plasma, po, 5 mg dextrorphan free base equivalents/kg, dextrorphan in plasma after oral dextrorphan, 5 mg free base equivalents/kg, female dogs, Mean, read-out: Tmax): 0.6 h | Cmax ([3]; female, beagle, dog, plasma, po, 5 mg dextrorphan free base equivalents/kg, dextrorphan in plasma after oral dextrorphan, 5 mg free base equivalents/kg, female dogs, single animal, read-out: Cmax): 3.6 ng/mL | Tmax ([3]; female, beagle, dog, plasma, po, 5 mg dextrorphan free base equivalents/kg, dextrorphan in plasma after oral dextrorphan, 5 mg free base equivalents/kg, female dogs, single animal, read-out: Tmax): 0.5 h | half-life ([3]; female, beagle, dog, plasma, po, 5 mg free base equivalents/kg, dextrorphan in plasma after oral dextrorphan, 5 mg free base equivalents/kg, female dogs, Mean, read-out: t½ (converted)): 3.1 h

O=C(Nc1ccc(C(=O)O)cc1)Oc1ccc2c3c1O[C@H]1[C@@H](O)CC[C@@]4(O)[C@@H](C2)N(CC2CCC2)CC[C@]314 [nalbuphine PABA carbamate, nalbuphine para amino benzoic acid carbamate]
AUC ([1]; male, Wistar, rat, plasma, po, 3 mg nalbuphine free base equivalents/kg, nalbuphine PABA carbamate in plasma after oral p-aminobenzoic acid carbamate prodrug, 3 mg nalbuphine equivs/kg, Mean, read-out: AUC): 11 ng·h/mL | Cmax ([1]; male, Wistar, rat, plasma, po, 3 mg nalbuphine free base equivalents/kg, nalbuphine PABA carbamate in plasma after oral p-aminobenzoic acid carbamate prodrug, 3 mg nalbuphine equivs/kg, Mean, read-out: Cmax): 12 ng/mL | Tmax ([1]; male, Wistar, rat, plasma, po, 3 mg nalbuphine free base equivalents/kg, nalbuphine PABA carbamate in plasma after oral p-aminobenzoic acid carbamate prodrug, 3 mg nalbuphine equivs/kg, Mean, read-out: Tmax): 0.25 h | half-life ([1]; male, Wistar, rat, plasma, po, 3 mg nalbuphine free base equivalents/kg, nalbuphine PABA carbamate in plasma after oral p-aminobenzoic acid carbamate prodrug, 3 mg nalbuphine equivs/kg, Mean): 0.8 h | AUC ([1]; male, Wistar, rat, plasma, po, 3 mg nalbuphine free base equivalents/kg, nalbuphine PABA carbamate in plasma after oral p-aminobenzoic acid carbamate prodrug, 3 mg nalbuphine equivs/kg, single animal, read-out: AUC): 14 ng·h/mL | Cmax ([1]; male, Wistar, rat, plasma, po, 3 mg nalbuphine free base equivalents/kg, nalbuphine PABA carbamate in plasma after oral p-aminobenzoic acid carbamate prodrug, 3 mg nalbuphine equivs/kg, single animal, read-out: Cmax): 16 ng/mL | Tmax ([1]; male, Wistar, rat, plasma, po, 3 mg nalbuphine free base equivalents/kg, nalbuphine PABA carbamate in plasma after oral p-aminobenzoic acid carbamate prodrug, 3 mg nalbuphine equivs/kg, single animal, read-out: Tmax): 0.25 h | AUC [1, 9]: 9.4 ng·h/mL and 11 ng·h/mL | Cmax [1, 9]: 11 ng/mL and 9.2 ng/mL | t½ [1, 9]: 0.5 h and 0.8 h and 1.2 h

CN1CC[C@]23CCCC[C@H]2[C@H]1Cc1ccc(O)cc13 [levorphanol]
AUC [4, 10]: 28 ng·h/mL and 34 ng·h/mL and 27 ng·h/mL | Cmax [4, 10]: 6.6 ng/mL and 8.2 ng/mL and 7.6 ng/mL | t½ [4, 10]: 2.1 h and 1.6 h | Tmax [4, 11]: 1.5 h | AUC ([4]; male, cynomolgus monkey, plasma, po, 5 mg levorphanol free base equivalents/kg, Mean, read-out: AUC): 28 ng·h/mL | Cmax ([4]; male, cynomolgus monkey, plasma, po, 5 mg levorphanol free base equivalents/kg, Mean, read-out: Cmax): 7.1 ng/mL | half-life [4, 11]: 1.7 h | Tmax [4, 12]: 2 h | AUC ([4]; male, cynomolgus monkey, plasma, po, 5 mg levorphanol free base equivalents/kg, single animal, read-out: AUC): 22 ng·h/mL | Cmax ([4]; male, cynomolgus monkey, plasma, po, 5 mg levorphanol free base equivalents/kg, single animal, read-out: Cmax): 6.2 ng/mL | half-life [4, 12]: 1.5 h | T>50%Cmax of levorphanol ([5]; dogs, oral 5 mg levorphanol free base equivalents/kg): 1.4 h | AUC ([5]; female, beagle, dog, plasma, po, 5 mg levorphanol free base equivalents/kg, Mean, read-out: AUC): 10 ng·h/mL | Cmax ([5]; female, beagle, dog, plasma, po, 5 mg levorphanol free base equivalents/kg, Mean, read-out: Cmax): 3.8 ng/mL | Tmax ([5]; female, beagle, dog, plasma, po, 5 mg levorphanol free base equivalents/kg, Mean, read-out: Tmax): 0.6 h | half-life ([5]; female, beagle, dog, plasma, po, 5 mg levorphanol free base equivalents/kg, Mean): 1.2 h | half-life ([5]; female, beagle, dog, plasma, po, 5 mg levorphanol free base equivalents/kg, single animal): 0.8 h | Tmax ([5]; female, beagle, dog, plasma, po, 5 mg levorphanol free base equivalents/kg, single animal, read-out: Tmax): 1 h | AUC ([5]; single animal): 5.8 ng·h/mL and 19 ng·h/mL and 16 ng·h/mL and 6.6 ng·h/mL and 2.8 ng·h/mL | T>50%Cmax ([5]; Mean): 1.4 h | T>50%Cmax ([5]; single animal): 1.5 h and 1.3 h | Cmax ([5]; single animal): 4.2 ng/mL and 3.2 ng/mL and 5.3 ng/mL and 4.3 ng/mL and 1.9 ng/mL | Tmax ([5]; single animal): 0.5 h
